Source: paper PMC5675618, “Identification and validation of FGFR2 peptide for detection of early Barrett's neoplasia” (Oncotarget, 2017)

Assays:
[1] = test system: QhTERT cells that express FGFR2c; assay: Apparent dissociation constant by flow cytometry; format: binding, human; conditions: 0 to 200 nM in PBS in 25 nM increments, 4°C, 1 hour; mean fluorescence intensity by flow cytometry; non-linear fit R^2 = 0.96; representative of 3 independent experiments
Method: We measured the apparent dissociation constant kd for peptide binding to cells to assess binding affinity. The Cy5.5-labeled peptide was serially diluted in PBS at concentrations ranging from 0 to 200 nM in 25 nM increments. QhTERT/FGFR2c cells (~10^5) were incubated with peptide at 4°C for 1 hour, washed with cold PBS, and the mean fluorescence intensities were measured using flow cytometry. The equilibrium dissociation constant kd=1/ka was calculated by performing a least squares fit of the data to the non-linear equation I=(I0+Imaxka[X])/([…]). I0 and Imax are the initial and maximum fluorescence intensities, corresponding to no peptide and at saturation, respectively, and [X] represents the concentration of the […] peptide. Prism 5.0 software (GraphPad Inc) was used to calculate kd.

[2] = test system: sections of human esophageal squamous cell cancer (SCC); assay: Confocal microscopy of staining of human esophageal squamous cell cancer (SCC) ex vivo
Source text: We observed good co-localization of peptide and antibody binding on merged images, Supplementary Figure 5C. Representative histology (H&E) for SCC is shown, Supplementary Figure 5D. […] Representative histology (H&E) for normal stomach is shown, Supplementary Figure 5H.

SRRPASFRTARE [SRR^*-Cy5.5]
Kd [1]: 68 nM
mean fluorescence intensity, SCC versus normal, SRR*-Cy5.5 ([2]; P=5×10-21, paired two-sided t-test, 3 boxes of 30×30 μm2): significantly greater mean fluorescence intensity
fluorescence intensity / binding, esophageal SCC ([2]; SCC sections ex vivo, n = 35 patients): strong fluorescence intensity
staining, normal human esophagus ([2]; normal esophagus, comparison): minimal staining
